From patent US9969752B2, “Inhibitors of HIF prolyl hydroxylase” (MERCK SHARP & DOHME CORP., priority 2014, dated 2018)

The compounds below were run against T1, Human HIF-PHD2 (Homo sapiens, UniProt Q9GZT9) (assay: Inhibition of the hydroxylation of a HIF peptide by PHD2 (time resolved fluorescence, 384-well)). Details: FLAG-tagged full length PHD2; 0.2 μM 2-oxoglutarate, 0.5 μM HIF-1α peptide; 45 minutes at room temperature; read-out: Human HIF-PHD2 IC50.
T1 construct: FLAG-tagged full length PHD2 expressed in and purified from baculovirus-infected Sf9 cells; FLAG; made in house; host or cells: baculovirus-infected Sf9 cells
T1 sequence (Q9GZT9 whole entry): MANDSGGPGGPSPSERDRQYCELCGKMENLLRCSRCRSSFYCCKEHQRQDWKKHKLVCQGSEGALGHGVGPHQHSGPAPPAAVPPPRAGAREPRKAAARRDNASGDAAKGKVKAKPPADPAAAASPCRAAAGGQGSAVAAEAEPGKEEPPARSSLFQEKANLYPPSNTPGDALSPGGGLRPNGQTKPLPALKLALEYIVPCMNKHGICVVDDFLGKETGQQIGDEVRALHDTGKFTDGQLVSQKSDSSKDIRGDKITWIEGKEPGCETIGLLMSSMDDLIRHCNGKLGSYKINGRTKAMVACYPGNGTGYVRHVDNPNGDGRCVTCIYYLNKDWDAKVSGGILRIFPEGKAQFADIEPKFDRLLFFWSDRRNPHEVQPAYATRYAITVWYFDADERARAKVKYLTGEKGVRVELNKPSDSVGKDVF
Assay type: biochemical
`CN1c2cccc3c(O)c(C(=O)NCC(=O)O)c(=O)n(c23)CC1c1cncs1` (stereo not drawn) [Example 112, 2-(7-Hydroxy-1-methyl-5-oxo-2-(thiazol-5-yl)-1,2,3,5-tetrahydropyrido[1,2,3-de]quinoxaline-6-carboxamido)acetic acid] gave an IC50 of 29 nM. For `CN1CC(c2cncs2)n2c(=O)c(C(=O)NCC(=O)O)c(O)c3cccc1c32` (stereo not drawn) [Example 113, 2-(7-Hydroxy-1-methyl-5-oxo-3-(thiazol-5-yl)-1,2,3,5-tetrahydropyrido[1,2,3-de]quinoxaline-6-carboxamido)acetic acid], the IC50 was 125 nM. Compound `N#Cc1ccc2c(O)c(C(=O)NCC(=O)O)c(=O)n3c2c1NC(c1ccc(C(F)(F)F)cc1)C3` (stereo not drawn) [Example 114, 2-(10-Cyano-7-hydroxy-5-oxo-2-(4-(trifluoromethyl)phenyl)-1,2,3,5-tetrahydropyrido[1,2,3-de]quinoxaline-6-carboxamido)acetic acid] has an IC50 of 1 nM. In the case of `O=C(O)CNC(=O)c1c(O)c2ccc(F)c3c2n(c1=O)C(c1ccc(C(F)(F)F)cc1)CN3` (stereo not drawn) [Example 115, 2-(10-Fluoro-7-hydroxy-5-oxo-3-(4-(trifluoromethyl)phenyl)-1,2,3,5-tetrahydropyrido[1,2,3-de]quinoxaline-6-carboxamido)acetic acid], the IC50 is reported as 13 nM. In the case of `O=C(O)CNC(=O)c1c(O)c2ccc(F)c3c2n(c1=O)CC(c1ccc(C(F)(F)F)cc1)N3` (stereo not drawn) [Example 116, 2-(10-Fluoro-7-hydroxy-5-oxo-2-(4-(trifluoromethyl)phenyl)-1,2,3,5-tetrahydropyrido[1,2,3-de]quinoxaline-6-carboxamido)acetic acid], the IC50 is reported as 8.8 nM. Compound `CN1CC(c2ccc(C(F)(F)F)cc2)n2c(=O)c(C(=O)NCC(=O)O)c(O)c3ccc(F)c1c32` (stereo not drawn) [Example 117, 2-(10-Fluoro-7-hydroxy-1-methyl-5-oxo-3-(4-(trifluoromethyl)phenyl)-1,2,3,5-tetrahydropyrido[1,2,3-de]quinoxaline-6-carboxamido)acetic acid] has an IC50 of 55 nM. Work on `O=C(O)CNC(=O)c1c(O)c2cc(F)cc3c2n(c1=O)C(c1ccc(C(F)(F)F)cc1)CN3` (stereo not drawn) [Example 118, 2-(9-Fluoro-7-hydroxy-5-oxo-3-(4-(trifluoromethyl)phenyl)-1,2,3,5-tetrahydropyrido[1,2,3-de]quinoxaline-6-carboxamido)acetic acid] yielded an IC50 of 5.7 nM. With `O=C(O)CNC(=O)c1c(O)c2c(F)ccc3c2n(c1=O)CC(c1ccc(C(F)(F)F)cc1)N3` (stereo not drawn) [Example 119, 2-(8-Fluoro-7-hydroxy-5-oxo-2-(4-(trifluoromethyl)phenyl)-1,2,3,5-tetrahydropyrido[1,2,3-de]quinoxaline-6-carboxamido)acetic acid] the IC50 was 10 nM. With `O=C(O)CNC(=O)c1c(O)c2cc(F)cc3c2n(c1=O)CC(c1ccc(C(F)(F)F)cc1)N3` (stereo not drawn) [Example 120, 2-(9-Fluoro-7-hydroxy-5-oxo-2-(4-(trifluoromethyl)phenyl)-1,2,3,5-tetrahydropyrido[1,2,3-de]quinoxaline-6-carboxamido)acetic acid] the IC50 was 4.6 nM. Work on `O=C(O)CNC(=O)c1c(O)c2c(F)ccc3c2n(c1=O)C(c1ccc(C(F)(F)F)cc1)CN3` (stereo not drawn) [Example 121, 2-(8-Fluoro-7-hydroxy-5-oxo-3-(4-(trifluoromethyl)phenyl)-1,2,3,5-tetrahydropyrido[1,2,3-de]quinoxaline-6-carboxamido)acetic acid] yielded an IC50 of 9.4 nM. `CN1CC(c2ccc(C(F)(F)F)cc2)n2c(=O)c(C(=O)NCC(=O)O)c(O)c3cc(F)cc1c32` (stereo not drawn) [Example 122, 2-(9-Fluoro-7-hydroxy-1-methyl-5-oxo-3-(4-(trifluoromethyl)phenyl)-1,2,3,5-tetrahydropyrido[1,2,3-de]quinoxaline-6-carboxamido)acetic acid] showed an IC50 of 30 nM. In the case of `CN1c2cc(F)cc3c(O)c(C(=O)NCC(=O)O)c(=O)n(c23)CC1c1ccc(C(F)(F)F)cc1` (stereo not drawn) [Example 123, 2-(9-Fluoro-7-hydroxy-1-methyl-5-oxo-2-(4-(trifluoromethyl)phenyl)-1,2,3,5-tetrahydropyrido[1,2,3-de]quinoxaline-6-carboxamido)acetic acid], the IC50 is reported as 15 nM. With `O=C(O)CNC(=O)c1c(O)c2cc(OC(F)(F)F)cc3c2n(c1=O)CC(c1ccc(C(F)(F)F)cc1)O3` (stereo not drawn) [Example 124, 2-(7-Hydroxy-5-oxo-9-(trifluoromethoxy)-2-(4-(trifluoromethyl)phenyl)-3,5-dihydro-2H-[1,4]oxazino[2,3,4-ij]quinoline-6-carboxamido)acetic acid] the IC50 was 9.6 nM. For `O=C(O)CNC(=O)c1c(O)c2cccc3c2n(c1=O)C(c1ccc(C(F)(F)F)nc1)CN3` (stereo not drawn) [Example 127, 2-(7-Hydroxy-5-oxo-3-(6-(trifluoromethyl)pyridin-3-yl)-1,2,3,5-tetrahydropyrido[1,2,3-de]quinoxaline-6-carboxamido)acetic acid], the IC50 was 3.6 nM. Compound `CN1CC(c2ccc(C(F)(F)F)nc2)n2c(=O)c(C(=O)NCC(=O)O)c(O)c3cccc1c32` (stereo not drawn) [Example 128, 2-(7-Hydroxy-1-methyl-5-oxo-3-(6-(trifluoromethyl)pyridin-3-yl)-1,2,3,5-tetrahydropyrido[1,2,3-de]quinoxaline-6-carboxamido)acetic acid] has an IC50 of 6.9 nM. With `CS(=O)(=O)Nc1ccc(-c2ccc3c(O)c(C(=O)NCC(=O)O)c(=O)n4c3c2OCC4c2ccc(C(F)(F)F)cc2)cc1` (stereo not drawn) [Example 134, N-[(7-Hydroxy-10-{4-[(methylsulfonyl)amino]phenyl}-5-oxo-3-[4-(trifluoromethyl)phenyl]-2,3-dihydro-5H-[1,4]oxazino[2,3,4-ij]quinolin-6-yl)carbonyl]glycine] the IC50 was 38 nM.

Same assay, conditions: FLAG-tagged full length PHD2; 0.2 μM 2-oxoglutarate, 0.5 μM HIF-1α peptide; 45 minutes at room temperature; read-out: MS m/z (M + 1)+ and human HIF-PHD2 IC50
`COc1cncc(-c2ccc3c(O)c(C(=O)NCC(=O)O)c(=O)n4c3c2OCC4c2ccc(C(F)(F)F)cc2)c1` (stereo not drawn) [Example 135, N-({7-hydroxy-10-(5-methoxypyridin-3-yl)-5-oxo-3-[4-(trifluoromethyl)phenyl]-2,3-dihydro-5H-[1,4]oxazino[2,3,4-ij]quinolin-6-yl}carbonyl)glycine] showed an IC50 of 15 nM. `O=C(O)CNC(=O)c1c(O)c2ccc(-c3ccccn3)c3c2n(c1=O)C(c1ccc(C(F)(F)F)cc1)CO3` (stereo not drawn) [Example 136, N-({7-hydroxy-5-oxo-10-pyridin-2-yl-3-[4-(trifluoromethyl)phenyl]-2,3-dihydro-5H-[1,4]oxazino[2,3,4-ij]quinolin-6-yl}carbonyl)glycine] gave an IC50 of 19 nM. Compound `COc1ncc(-c2ccc3c(O)c(C(=O)NCC(=O)O)c(=O)n4c3c2OCC4c2ccc(C(F)(F)F)cc2)cn1` (stereo not drawn) [Example 137, N-({7-hydroxy-10-(2-methoxypyrimidin-5-yl)-5-oxo-3-[4-(trifluoromethyl)phenyl]-2,3-dihydro-5H-[1,4]oxazino[2,3,4-ij]quinolin-6-yl}carbonyl)glycine] has an IC50 of 14 nM. `O=C(O)CNC(=O)c1c(O)c2ccc(-c3cncnc3)c3c2n(c1=O)C(c1ccc(C(F)(F)F)cc1)CO3` (stereo not drawn) [Example 138, N-({7-hydroxy-5-oxo-10-pyrimidin-5-yl-3-[4-(trifluoromethyl)phenyl]-2,3-dihydro-5H-[1,4]oxazino[2,3,4-ij]quinolin-6-yl}carbonyl)glycine] gave an IC50 of 12 nM. For `NC(=O)c1cccc(-c2ccc3c(O)c(C(=O)NCC(=O)O)c(=O)n4c3c2OCC4c2ccc(C(F)(F)F)cc2)c1` (stereo not drawn) [Example 139, N-({10-(3-carbamoylphenyl)-7-hydroxy-5-oxo-3-[4-(trifluoromethyl)phenyl]-2,3-dihydro-5H-[1,4]oxazino[2,3,4-ij]quinolin-6-yl}carbonyl)glycine], the IC50 was 14 nM.
